Measurements reported in patent US7709491B2, “Substituted quinazolines as antiviral agents, especially against cytomegaloviruses” (Bayer Schering Pharma Aktiengesellschaft, priority 2002, dated 2010).

What was measured:
[1] = Cytotoxicity on NHDF cells in the anti-HCMV cytopathogenicity test; assay type: cell-based; settings: human, NHDF cells (human prepuce fibroblasts), 6 days incubation, visual assessment of cytotoxic effects vs untreated cell control
Method: (§1) Anti-HCMV (Anti-Human Cytomegalovirus) Cytopathogenicity Tests The test compounds are employed as 50 millimolar (mM) solutions in dimethyl sulfoxide (DMSO). Ganciclovir, foscamet and cidofovir are used as reference compounds. After addition of in each case 2 μl of the 50, 5, 0.5 and 0.05 mM DMSO stock solutions to 98 μl portions of cell culture medium in row […] for duplicate determinations, 1:2 dilutions are carried out with 50 μl portions of medium up to row 11 of the 96-well plate. The wells in rows 1 and 12 each contain 50 μl of medium. 150 μl of a suspension of 1×10^4 cells (human prepuce fibroblasts [NHDF]) are then pipetted into each of the wells (row 1=cell control) and, in rows 2-12, a mixture of HCMV-infected and uninfected NHDF cells (M.O.I.=0.001-0.002), i.e. 1-2 infected cells per 1000 uninfected cells. Row 12 (without substance) serves as virus control. The final test concentrations are 250-0.0005 μM. The plates are incubated at 37° C./5% CO2 for 6 days, i.e. until all the cells are infected in the virus controls (100% cytopathogenic effect [CPE]). The wells are then fixed and stained by adding a mixture of formalin and Giemsa's dye (30 minutes), washed with double-distilled water and dried in a drying oven at 50° C. The plates are then assessed visually using an overhead microscope (plaque multiplier from Technomara). The following data can be acquired from the test plates: CC50 (NHDF)=substance concentration in […] at which no visible cytotoxic effects on the cells are evident by comparison with the untreated cell control;

[2] = test system: HCMV; test: Anti-HCMV cytopathogenicity test; assay type: cell-based, human cytomegalovirus; settings: for EC50: inhibition of CPE by 50% vs untreated virus control, HCMV-infected NHDF cells, M.O.I. 0.001-0.002, 6 days; for SI HCMV (selectivity index = CC50 (NHDF)/EC50 (HCMV)): ratio CC50 (NHDF)/EC50 (HCMV)
Method: Anti-HCMV (Anti-Human Cytomegalovirus) Cytopathogenicity Tests The test compounds are employed as 50 millimolar (mM) solutions in dimethyl sulfoxide (DMSO). Ganciclovir, foscamet and cidofovir are used as reference compounds. After addition of in each case 2 μl of the 50, 5, 0.5 and 0.05 mM DMSO stock solutions to 98 μl portions of cell culture medium in row […] for duplicate determinations, 1:2 dilutions are carried out with 50 μl portions of medium up to row 11 of the 96-well plate. The wells in rows 1 and 12 each contain 50 μl of medium. 150 μl of a suspension of 1×10^4 cells (human prepuce fibroblasts [NHDF]) are then pipetted into each of the wells (row 1=cell control) and, in rows 2-12, a mixture of HCMV-infected and uninfected NHDF cells (M.O.I.=0.001-0.002), i.e. 1-2 infected cells per 1000 uninfected cells. Row 12 (without substance) serves as virus control. The final test concentrations are 250-0.0005 μM. The plates are incubated at 37° C./5% CO2 for 6 days, i.e. until all the cells are infected in the virus controls (100% cytopathogenic effect [CPE]). The wells are then fixed and stained by adding a mixture of formalin and Giemsa's dye (30 minutes), washed with double-distilled water and dried in a drying oven at 50° C. The plates are then assessed visually using an overhead microscope (plaque multiplier from Technomara). The following data can be acquired from the test plates: EC50 (HCMV)=substance concentration in μM which inhibits the CPE (cytopathic effect) by 50% compared with the untreated virus control; SI (selectivity index)=CC50 (NHDF)/EC50 (HCMV).

[3] = test system: NHDF cells (human prepuce fibroblasts); test: Cytotoxicity on NHDF cells in the anti-HCMV cytopathogenicity test; assay type: cell-based; settings: 6 days incubation, visual assessment of cytotoxic effects vs untreated cell control
Method: as §1

[4] = Human betaherpesvirus 5, NHDF, 144 h

Row | Compound | EC50 [2, 4] | EC50 [2] | CC50 at 6 days [1] | SI HCMV (selectivity index = CC50 (NHDF)/EC50 (HCMV)) [2] | CC50 [3]
1 | O=C(O)CC1c2cccc(F)c2N=C(c2ccc(-c3ccc(F)cc3)cc2)N1c1cccc(C(F)(F)F)c1 (racemic) [Example 1] | 0.1 µM |  | 15 µM | 150 | 
2 | COc1ccc(C(F)(F)F)cc1N1C(c2ccc(-c3ccc(F)cc3)cc2)=Nc2c(F)cccc2C1CC(=O)O (racemic) [Example 32, {2-[4-(4-Fluorophenyl)phenyl]-8-fluoro-3-[2-methoxy-5-(trifluoromethyl)phenyl]-3,4-dihydro-4-quinazolinyl}acetic acid] | 0.01 µM |  | 15 µM | 1500 | 
3 | COc1cccc(-c2ccc(C3=Nc4c(F)cccc4C(CC(=O)O)N3c3cc(C(F)(F)F)ccc3OC)cc2)c1 (racemic) [Example 36, {2-[4-(3-Methoxyphenyl)phenyl]-8-fluoro-3-[2-methoxy-5-(trifluoromethyl)phenyl]-3,4-dihydro-4-quinazolinyl}acetic acid] | 0.01 µM |  | 15 µM | 1500 | 
4 | O=C(O)CC1c2cccc(F)c2N=C(c2ccc(-c3ccc(F)cc3)cc2F)N1c1cccc(C(F)(F)F)c1 (stereo not drawn) [Example 7, {2-(3,4′-Difluoro-1,1′-biphenyl-4-yl)-8-fluoro-3-[3-(trifluoromethyl)phenyl]-3,4-dihydro-4-quinazolinyl}acetic acid] | 1.8 µM |  | 31 µM | 17 | 

Second part, led by results:

Row | EC50 [2, 4] | EC50 [2] | Compound | CC50 at 6 days [1] | SI HCMV (selectivity index = CC50 (NHDF)/EC50 (HCMV)) [2] | CC50 [3]
5 |  | 0.07 µM | O=C(O)CC1c2cccc(F)c2N=C(c2ccc(-c3ccc(F)cc3)cc2)N1c1cccc(C(F)(F)F)c1 (racemic) [Example 2, {8-Fluoro-2-(4′-fluoro-1,1′-biphenyl-4-yl)-3-[3-(trifluoromethyl)phenyl]-3,4-dihydro-4-quinazolinyl}acetic acid] |  | 171 | 12 µM
6 |  | 0.13 µM | Cc1cccc(-c2ccc(C3=Nc4c(F)cccc4C(CC(=O)O)N3c3cccc(C(F)(F)F)c3)cc2)c1 (racemic) [Example 3, {8-Fluoro-2-(3′-methyl-1,1′-biphenyl-4-yl)-3-[3-(trifluoromethyl)phenyl]-3,4-dihydro-4-quinazolinyl}acetic acid] | 15 µM | 115 | 
7 |  | 0.06 µM | Cc1cccc(-c2ccc(C3=Nc4c(F)cccc4C(CC(=O)O)N3c3cccc(C(F)(F)F)c3)cc2)c1 (racemic) [Example 4, {8-Fluoro-2-(3′-methyl-1,1′-biphenyl-4-yl)-3-[3-(trifluoromethyl)phenyl]-3,4-dihydro-4-quinazolinyl}acetic acid] |  | 143 | 8.6 µM
8 | 0.74 µM |  | Cc1cc(-c2ccc(C3=Nc4c(F)cccc4C(CC(=O)O)N3c3cccc(C(F)(F)F)c3)cc2)ccc1F (stereo not drawn) [Example 5, {8-Fluoro-2-(4′-fluoro-3′-methyl-1,1′-biphenyl-4-yl)-3-[3-(trifluoromethyl)phenyl]-3,4-dihydro-4-quinazolinyl}acetic acid] | 12 µM | 16 | 
9 | 0.35 µM |  | O=C(O)CC1c2cccc(F)c2N=C(c2ccc(-c3cccc(F)c3)cc2)N1c1cccc(C(F)(F)F)c1 (stereo not drawn) [Example 6, {8-Fluoro-2-(3′-fluoro-1,1′-biphenyl-4-yl)-3-[3-(trifluoromethyl)phenyl]-3,4-dihydro-4-quinazolinyl}acetic acid] | 12 µM | 34 | 
